Source: US6110494A, “Cisapride mini-tablet formulations” (Elan Corporation, plc, priority 1997, dated 2000)

Tests used:
[1] = cited from earlier work
[2] = Solubility of cisapride and its salt
[3] = extended release, viscous hydrophilic polymers; cited from earlier work

SMILES | effect of food on absorption ([1]; food) | half life ([1]; in vivo) | absorption in distal regions of the gastrointestinal tract ([1]; more distal regions) | solubilisation at pH 6.8 [2] | dissolution rates [3]
COc1cc(N)c(Cl)cc1C(=O)NC1CCN(CCCOc2ccc(F)cc2)CC1OC (stereo not drawn) [Cisapride] | enhancing effect on the absorption | relatively short half life | significant decrease in absorption | SLS (sodium lauryl sulphate) was required to solubilise | –
COc1cc(N)c(Cl)cc1C(=O)NC1CCN(CCCOc2ccc(F)cc2)CC1OC (single isomer, unassigned; (-)) [(-)-cisapride-(L)tartrate] | – | – | – | – | equal dissolution rates
COc1cc(N)c(Cl)cc1C(=O)NC1CCN(CCCOc2ccc(F)cc2)CC1OC.O=C(O)C(O)C(O)C(=O)O (single isomer, unassigned; (+)) [(+)-cisapride-(L) tartrate] | – | – | – | – | equal dissolution rates
